This note sets out measurements from US20220380801A1, “TRIPARTITE SYSTEMS FOR PROTEIN DIMERIZATION AND METHODS OF USE” (priority 2019, published 2022).

Assay [1] concerns IL-2 production by split CAR-expressing Jurkat cells. Description: Split chimeric antigen receptor activation assay. In kind it is cell-based. An excerpt:
A chimeric antigen receptor (CAR), a synthetic, genetically engineered version of a T-cell receptor, can direct the activation of immune cells in response to user-defined targets via target-specific recognition domains, e.g. a single chain variable antibody fragment (scFv). These multi-domain, synthetic proteins are typically constructed by fusion of the target recognition domain to a transmembrane domain, T-cell receptor co-stimulatory domain and a C-terminal CD3 zeta cytoplasmic activation domain. A split-CAR can be generated by expressing the target recognition/transmembrane/co-stimulatory domain and the CD3 zeta activation domain as two separate proteins. […]
Lentiviral particles encoding each split CAR were generated using the pPACKH1 HIV lentivector packaging kit (Systems Bioscience), according to the manufacturer's protocol. […] Split CAR-transduced Jurkat cell pools were FACS-sorted based on GFP fluorescence to achieve equivalent expression levels for both the FKBP12:FRB and HCV NS3/4A PR (S139A):PRSIM_23 CARs before functional testing. Activation of the split-CAR-expressing Jurkat cells can be measured by interleukin-2 (IL-2) production after stimulation of the CAR (Smith-Garvin, Koretzky, and Jordan 2009). […]

The test system of a further assay is hESC line Sa121. Nature of the assay: PRSIM-based kill switch activity in ESC cells (confluency). In kind it is cell-based, human. How it is done:
The hESC line Sa121 (TakaraBio Europe) was also transduced with the lentiviral particles encoding the PRSIM-based kill switch fusion protein described above (SEQ ID 223). Cells (passage 19) were plated at 3.5×10^5 cells/cm^2 in the DEF-CS culture system, and the cells were transduced 30 h later. 24 h after transduction, puromycin selection was initiated and the antibiotic selection was maintained until a stable cell pool was achieved.
To test the induction of the kill switch in Sa121 ES cells, the cells were plated at 3.5×10^5/cm^2 two days before inducing kill switch activity by treating with simeprevir at concentrations from 10 nm to 1 uM. The cells were imaged using the Incucyte S3 (EssenBioscience) at intervals ranging from 10-20 min; kill switch efficiency was quantified by image analysis of confluency.

Another assay has as its system MED18852 expression. Description: Transcriptional regulation assay, antibody (MED18852) expression. To be noted: DBD-PRSIM_23 (three tandem copies); 48 hours after simeprevir. In kind it is cell-based, human. An excerpt:
The DNA sequence encoding MED18852 (SEQ ID NO: 237 and SEQ ID NO: 238, separated by an internal ribosome entry site (IRES) sequence) was purchased as a as a DNA string from GeneArt and cloned into the pZFHD1-2 vector (Takara) downstream of the ZFHD1 inducible promoter using Gibson assembly cloning. The nucleotide sequence of the final construct was confirmed by sequencing.
For the quantification of antibody expression (MED18852) utilising the transcriptional regulation assay, the cells were co-transfected with a pHet-Act1-2 plasmid (containing the HCV NS3/4A PR (S139A):PRSIM_23) and a pZFHD1 plasmid (encoding MED18852); 24 hours later wells were treated with different concentrations of simeprevir. Antibody concentration was determined in the supernatants 48 hours post the addition of simeprevir using MSD kit (Singleplex Human/NHP IgG Isotyping Kit (Mesoscale).

The target of a further assay is WT HCV NS3/4A PR (Hepatitis C virus subtype 1a, UniProt A8DG50, A1066T/I1043Q/I1044E/L1039E/L1040E/L1047Q, form not given). Description: Isothermal calorimetry. In kind it is binding. The conditions noted are these: ITC, 37° C. How it is done: (§1) Isothermal calorimetry (ITC) was carried out using the Auto-ITC 200 (Malvern), with a preliminary injection of 0.4 μl followed by 19 injections of 2 μl each, at 120 second intervals. Rotation of the solution was set to 750 rpm and temperature 37° C. […] The WT was run once; the S139A mutant was run in duplicate. The data were analysed with the ITC-PEAQ software (Malvern) using a one-site binding model and reference subtraction point-by-point.
Background: Isothermal titration calorimetry measures the heat released or taken up as one component is titrated into another.

The next assay concerns the target S139A HCV NS3/4A PR (Hepatitis C virus subtype 1a, UniProt A8DG50, A1066T/I1043Q/I1044E/L1039E/L1040E/L1047Q/S1165A, form not given). Description: Isothermal calorimetry. It counts as binding. The conditions noted are these: ITC, 37° C. How it is done:
as §1

SMILES strings stand for the structures.

Consider `COc1ccc2c(O[C@@H]3C[C@H]4C(=O)N[C@]5(C(=O)NS(=O)(=O)C6CC6)C[C@H]5/C=C\CCCCN(C)C(=O)[C@@H]4C3)cc(-c3nc(C(C)C)cs3)nc2c1C` [simeprevir], for which the entries for the “activation of CAR-expressing Jurkat cells (IL-2 production)” value in assay [1] (co-culture with antigen-negative A375 cells) and in assay [1] (co-culture with antigen-positive HepG2 cells) were “no activation” and “dose-dependent activation”, respectively. The cell killing entry in the assay with hESC line Sa121 (10 nM simeprevir, 4 hours timeframe) was “maximal cell killing was not reached”; in the assay with hESC line Sa121 (100 nM simeprevir, within 4 hours) it was about 90%. In addition, in the assay with hESC line Sa121 (1 μM simeprevir), the “onset of cell killing” value is about 15 min. The “cells eliminated (cell confluency)” value with hESC line Sa121 (1 μM simeprevir, within 4 hours, kill switch-transduced Sa121) is “up to 95%”. Also, the response to simeprevir entry in the assay on hESC line Sa121 (wt (non-transduced) Sa121 cells) is recorded as “did not respond to treatment with simeprevir”. For the same compound, the “expression of MED18852” value with MED18852 expression was “dependent on the dose of simeprevir”. Also, the stoichiometry on WT HCV NS3/4A PR and on S139A HCV NS3/4A PR was about 0.6 Sim/NS3 binding sites each time. Besides, the ΔH at WT HCV NS3/4A PR and on S139A HCV NS3/4A PR was about 22 kcal/mol in each case.
